Results reported in patent US20090074815A1, “Immunomodulator Compounds as Vaccine Enhancers” (SCICLONE PHARMACEUTICALS, INC., priority 2005, published 2009).
Where two headings read alike, the source gives them in different places.

How the values were obtained:
[1] = test system: IL-10 production by OvA-stimulated splenocytes; assay: OvA-stimulated production of IL-10 by splenocytes of OvA-immunized mice; conditions: OvA/FA
Experimental: The OvA was administered subcutaneously to the crest in a volume of 200 μl. Mice were immunized on day 1 with OvA in complete Freund's adjuvant (CFA; Sigma) and on day 15 with the antigen in incomplete Freund's adjuvant (IFA; Sigma). The immune response was analyzed on day 29. Mice were also immunized with 10 μg/mouse of OvA using Alum as an adjuvant.
Thymuses and spleens from mice of each treatment group were pooled, and then minced with scissors. The minced tissues were suspended in sterile PBS to form cell suspensions, filtered through a double gauze layer and centrifuged. Cells were washed twice with PBS, re-suspended in RPMI-1640 (Sigma) with 2.0 mM of L-glutamine, 50 μM of mercaptoethanol, and 10 μg/ml of gentamycin (complete medium); and cell counts were made. (The splenocyte suspension was washed with a 0.86% solution of NH4Cl to pre-lyse erthrocytes.)
Assessment of Mitogen- and Antigen-Induced Production of Cytokines: Thymic cells (1×10^6/well) in complete medium with 2% FCS were stimulated with ConA (0, 1, and 2 μg/ml). Splenocytes (1×10^6/well) in complete medium with 5% FCS were stimulated with ConA (0, 1, and 5 μg/ml) and with OvA (0-100 μg/ml). […] Supernatants from OvA-stimulated cultures were collected after 72 hours. Supernatants from both cultures were frozen, and kept at 20° C. Concentrations of IL-2, IL-4, IL-10, IL-12R40 and IFNγ in the supernatants were determined by solid-phase EIA with EIA Expansion Kits, available from BD Biosciences (formerly Pharmingen), in accordance with the manufacturer's instructions.

[2] = test system: IFN-γ production by OvA-stimulated splenocytes; assay: OvA-stimulated production of IFN-γ by splenocytes of OvA-immunized mice; format: in vivo; conditions: for activity at 0.0001 mg/kg / activity at 0.001 mg/kg / activity at 0.01 mg/kg: Mus musculus, Splenocyte, po, read-out: Production of IFN-γ by splenocytes, % (% of control)
[3] = OvA/Alum, 0.1 μg/kg per os, OvA 0 μg/ml
[4] = OvA/Alum, 0.1 μg/kg per os, OvA 10 μg/ml
[5] = OvA/Alum, 0.1 μg/kg per os, OvA 25 μg/ml
[6] = OvA/Alum, 0.1 μg/kg per os, OvA 50 μg/ml
[7] = OvA/Alum, 0.1 μg/kg per os, OvA 100 μg/ml
[8] = OvA/Alum, 1.0 μg/kg per os, OvA 0 μg/ml
[9] = OvA/Alum, 1.0 μg/kg per os, OvA 10 μg/ml
[10] = OvA/Alum, 1.0 μg/kg per os, OvA 25 μg/ml
[11] = OvA/Alum, 1.0 μg/kg per os, OvA 50 μg/ml
[12] = OvA/Alum, 1.0 μg/kg per os, OvA 100 μg/ml
[13] = OvA/Alum, 10.0 μg/kg per os, OvA 0 μg/ml
[14] = OvA/Alum, 10.0 μg/kg per os, OvA 10 μg/ml
[15] = OvA/Alum, 10.0 μg/kg per os, OvA 25 μg/ml
[16] = OvA/Alum, 10.0 μg/kg per os, OvA 50 μg/ml
[17] = OvA/Alum, 10.0 μg/kg per os, OvA 100 μg/ml
[18] = OvA/Alum, 0.1 μg/kg i/p, OvA 10 μg/ml
[19] = OvA/Alum, 0.1 μg/kg i/p, OvA 25 μg/ml
[20] = OvA/Alum, 0.1 μg/kg i/p, OvA 50 μg/ml
[21] = OvA/Alum, 0.1 μg/kg i/p, OvA 100 μg/ml
[22] = OvA/Alum, 1.0 μg/kg i/p, OvA 25 μg/ml
[23] = OvA/Alum, 1.0 μg/kg i/p, OvA 50 μg/ml
[24] = OvA/Alum, 1.0 μg/kg i/p, OvA 100 μg/ml

Q: `N[C@H](CCC(=O)N[C@@H](Cc1c[nH]c2ccccc12)C(=O)O)C(=O)O` [SCV-07, γ-D-glutamyl-L-tryptophan] was tested. Which “Production of IL-10 by splenocytes, % (% of control)” value ([1]; 1.0 μg/kg i/p, OvA 50 μg/ml) did it give?
A: 186.4%

Q: And the “Production of IL-10 by splenocytes” value ([1]; 1.0 μg/kg i/p, OvA 100 μg/ml)?
A: 963.8 pg/mL

Q: What about the “Production of IL-10 by splenocytes, % (% of control)” value ([1]; 1.0 μg/kg i/p, OvA 100 μg/ml) of the same molecule?
A: 210.7%

Q: What about the “Production of IL-10 by splenocytes” value ([1]; 1.0 μg/kg per os, OvA 0 μg/ml) of the same molecule?
A: 407.6 pg/mL

Q: And the “Production of IL-10 by splenocytes” value ([1]; 1.0 μg/kg per os, OvA 10 μg/ml)?
A: 953.1 pg/mL

Q: What about the “Production of IL-10 by splenocytes” value ([1]; 1.0 μg/kg per os, OvA 25 μg/ml) of the same molecule?
A: 984.1 pg/mL

Q: What about the “Production of IL-10 by splenocytes” value ([1]; 1.0 μg/kg per os, OvA 50 μg/ml) of the same molecule?
A: 1120.7 pg/mL

Q: What about the “Production of IL-10 by splenocytes” value ([1]; 1.0 μg/kg per os, OvA 100 μg/ml) of the same molecule?
A: 1292.2 pg/mL

Q: What about the “Production of IL-10 by splenocytes” value ([1]; 10.0 μg/kg per os, OvA 0 μg/ml) of the same molecule?
A: 627.3 pg/mL

Q: What about the “Production of IL-10 by splenocytes” value ([1]; 10.0 μg/kg per os, OvA 10 μg/ml) of the same molecule?
A: 831.6 pg/mL

Q: What about the “Production of IL-10 by splenocytes” value ([1]; 10.0 μg/kg per os, OvA 25 μg/ml) of the same molecule?
A: 1092.7 pg/mL

Q: And the “Production of IL-10 by splenocytes” value ([1]; 10.0 μg/kg per os, OvA 50 μg/ml)?
A: 1356.1 pg/mL

Q: And the “Production of IL-10 by splenocytes” value ([1]; 10.0 μg/kg per os, OvA 100 μg/ml)?
A: 1569.3 pg/mL

Q: And the activity at 0.0001 mg/kg [2, 3]?
A: 100%

Q: What about the activity at 0.0001 mg/kg [2, 4] of the same molecule?
A: 124%

Q: And the activity at 0.0001 mg/kg [2, 5]?
A: 150%

Q: And the activity at 0.0001 mg/kg [2, 6]?
A: 150%

Q: What about the activity at 0.0001 mg/kg [2, 7] of the same molecule?
A: 158%

Q: What about the activity at 0.001 mg/kg [2, 8] of the same molecule?
A: 100%

Q: And the activity at 0.001 mg/kg [2, 9]?
A: 98.3%

Q: What about the activity at 0.001 mg/kg [2, 10] of the same molecule?
A: 103%

Q: What about the activity at 0.001 mg/kg [2, 11] of the same molecule?
A: 103%

Q: What about the activity at 0.001 mg/kg [2, 12] of the same molecule?
A: 122%

Q: What about the activity at 0.01 mg/kg [2, 13] of the same molecule?
A: 100%

Q: What about the activity at 0.01 mg/kg [2, 14] of the same molecule?
A: 47.9%

Q: What about the activity at 0.01 mg/kg [2, 15] of the same molecule?
A: 119%

Q: And the activity at 0.01 mg/kg [2, 16]?
A: 119%

Q: And the activity at 0.01 mg/kg [2, 17]?
A: 140%

Q: What about the activity at 0.0001 mg/kg ([2]; OvA/FA, 0.1 μg/kg per os, OvA 0 μg/ml) of the same molecule?
A: 100%

Q: What about the activity at 0.0001 mg/kg ([2]; OvA/FA, 0.1 μg/kg per os, OvA 10 μg/ml) of the same molecule?
A: 119%

Q: And the activity at 0.0001 mg/kg ([2]; OvA/FA, 0.1 μg/kg per os, OvA 25 μg/ml)?
A: 121%

Q: And the activity at 0.0001 mg/kg ([2]; OvA/FA, 0.1 μg/kg per os, OvA 50 μg/ml)?
A: 142%

Q: And the activity at 0.0001 mg/kg ([2]; OvA/FA, 0.1 μg/kg per os, OvA 100 μg/ml)?
A: 136%

Q: What about the activity at 0.001 mg/kg ([2]; OvA/FA, 1.0 μg/kg per os, OvA 0 μg/ml) of the same molecule?
A: 100%

Q: And the activity at 0.001 mg/kg ([2]; OvA/FA, 1.0 μg/kg per os, OvA 10 μg/ml)?
A: 128%

Q: What about the activity at 0.001 mg/kg ([2]; OvA/FA, 1.0 μg/kg per os, OvA 25 μg/ml) of the same molecule?
A: 87.3%

Q: What about the activity at 0.001 mg/kg ([2]; OvA/FA, 1.0 μg/kg per os, OvA 50 μg/ml) of the same molecule?
A: 116%

Q: What about the activity at 0.001 mg/kg ([2]; OvA/FA, 1.0 μg/kg per os, OvA 100 μg/ml) of the same molecule?
A: 113%

Q: What about the activity at 0.01 mg/kg ([2]; OvA/FA, 10.0 μg/kg per os, OvA 0 μg/ml) of the same molecule?
A: 100%

Q: What about the activity at 0.01 mg/kg ([2]; OvA/FA, 10.0 μg/kg per os, OvA 10 μg/ml) of the same molecule?
A: 83.7%

Q: And the activity at 0.01 mg/kg ([2]; OvA/FA, 10.0 μg/kg per os, OvA 25 μg/ml)?
A: 66.2%

Q: And the activity at 0.01 mg/kg ([2]; OvA/FA, 10.0 μg/kg per os, OvA 50 μg/ml)?
A: 75.9%

Q: And the activity at 0.01 mg/kg ([2]; OvA/FA, 10.0 μg/kg per os, OvA 100 μg/ml)?
A: 74.8%

Q: What about the “Production of IFN-γ by splenocytes” value ([2]; OvA/Alum, 0.1 μg/kg i/p, OvA 0 μg/ml) of the same molecule?
A: 9365 pg/mL

Q: And the “Production of IFN-γ by splenocytes” value [2, 18]?
A: 8816 pg/mL

Q: And the “Production of IFN-γ by splenocytes, % (% of control)” value (“Production of IFN-γ … (% of control)” for short) [2, 18]?
A: 94.1%

Q: What about the “Production of IFN-γ by splenocytes” value [2, 19] of the same molecule?
A: 8028 pg/mL

Q: And the “Production of IFN-γ … (% of control)” value [2, 19]?
A: 85.7%

Q: What about the “Production of IFN-γ by splenocytes” value [2, 20] of the same molecule?
A: 8028 pg/mL

Q: And the “Production of IFN-γ … (% of control)” value [2, 20]?
A: 85.7%

Q: What about the “Production of IFN-γ by splenocytes” value [2, 21] of the same molecule?
A: 8048 pg/mL

Q: And the “Production of IFN-γ … (% of control)” value [2, 21]?
A: 85.9%

Q: And the “Production of IFN-γ by splenocytes” value [2, 3]?
A: 4642 pg/mL

Q: What about the “Production of IFN-γ by splenocytes” value [2, 4] of the same molecule?
A: 5775 pg/mL

Q: What about the “Production of IFN-γ by splenocytes” value [2, 5] of the same molecule?
A: 6969 pg/mL

Q: And the “Production of IFN-γ by splenocytes” value [2, 6]?
A: 6969 pg/mL

Q: And the “Production of IFN-γ by splenocytes” value [2, 7]?
A: 7310 pg/mL

Q: And the “Production of IFN-γ by splenocytes” value ([2]; OvA/Alum, 1.0 μg/kg i/p, OvA 0 μg/ml)?
A: 7129 pg/mL

Q: And the “Production of IFN-γ by splenocytes” value ([2]; OvA/Alum, 1.0 μg/kg i/p, OvA 10 μg/ml)?
A: 9986 pg/mL

Q: What about the “Production of IFN-γ by splenocytes” value [2, 22] of the same molecule?
A: 7982 pg/mL

Q: And the “Production of IFN-γ … (% of control)” value [2, 22]?
A: 112.0%

Q: And the “Production of IFN-γ by splenocytes” value [2, 23]?
A: 7982 pg/mL

Q: And the “Production of IFN-γ … (% of control)” value [2, 23]?
A: 112.0%

Q: What about the “Production of IFN-γ by splenocytes” value [2, 24] of the same molecule?
A: 8155 pg/mL

Q: What about the “Production of IFN-γ … (% of control)” value [2, 24] of the same molecule?
A: 114.4%

Q: What about the “Production of IFN-γ by splenocytes” value [2, 8] of the same molecule?
A: 5620 pg/mL

Q: What about the “Production of IFN-γ by splenocytes” value [2, 9] of the same molecule?
A: 5523 pg/mL

Q: What about the “Production of IFN-γ by splenocytes” value [2, 10] of the same molecule?
A: 5795 pg/mL

Q: What about the “Production of IFN-γ by splenocytes” value [2, 11] of the same molecule?
A: 5795 pg/mL

Q: What about the “Production of IFN-γ by splenocytes” value [2, 12] of the same molecule?
A: 6860 pg/mL

Q: What about the “Production of IFN-γ by splenocytes” value [2, 13] of the same molecule?
A: 4266 pg/mL

Q: What about the “Production of IFN-γ by splenocytes” value [2, 14] of the same molecule?
A: 2045 pg/mL

Q: What about the “Production of IFN-γ by splenocytes” value [2, 15] of the same molecule?
A: 5066 pg/mL

Q: What about the “Production of IFN-γ by splenocytes” value [2, 16] of the same molecule?
A: 5066 pg/mL

Q: And the “Production of IFN-γ by splenocytes” value [2, 17]?
A: 5976 pg/mL

Q: And the “Production of IFN-γ … (% of control)” value ([2]; OvA/FA, 0.1 μg/kg i/p, OvA 10 μg/ml)?
A: 126.6%

Q: What about the “Production of IFN-γ … (% of control)” value ([2]; OvA/FA, 0.1 μg/kg i/p, OvA 25 μg/ml) of the same molecule?
A: 89.3%

Q: And the “Production of IFN-γ … (% of control)” value ([2]; OvA/FA, 0.1 μg/kg i/p, OvA 50 μg/ml)?
A: 118.0%

Q: What about the “Production of IFN-γ … (% of control)” value ([2]; OvA/FA, 0.1 μg/kg i/p, OvA 100 μg/ml) of the same molecule?
A: 124.3%

Q: And the “Production of IFN-γ … (% of control)” value ([2]; OvA/FA, 1.0 μg/kg i/p, OvA 10 μg/ml)?
A: 139.0%

Q: What about the “Production of IFN-γ … (% of control)” value ([2]; OvA/FA, 1.0 μg/kg i/p, OvA 25 μg/ml) of the same molecule?
A: 112.2%

Q: And the “Production of IFN-γ … (% of control)” value ([2]; OvA/FA, 1.0 μg/kg i/p, OvA 50 μg/ml)?
A: 99.0%

Q: What about the “Production of IFN-γ … (% of control)” value ([2]; OvA/FA, 1.0 μg/kg i/p, OvA 100 μg/ml) of the same molecule?
A: 89.6%
